ChEMBL document CHEMBL1641589, “Phosphoramidate pronucleotides of cytostatic 6-aryl-7-deazapurine ribonucleosides” (Bioorg Med Chem, 2011)

How the values were obtained:
HCT-116 = test: Cytotoxicity against human HCT116 cells after 5 days by SRB assay; format: functional; details: HCT-116, 120 h
CCRF-CEM [1] = test: Cytotoxicity against human CCRF-CEM cells after 3 days by XTT assay; format: functional, cell-based; details: 72 h
HL-60 = test: Cytotoxicity against human HL60 cells after 5 days by SRB assay; format: functional; details: HL-60, 120 h
[2] = Cytotoxicity against human Hs578 cells after 5 days by SRB assay; format: functional; details: Hs578, 120 h
[3] = Cytotoxicity against human HeLaS3 cells after 3 days by XTT assay; format: functional, cell-based; details: HeLa S3, 72 h
HepG2 = test: Cytotoxicity against human HepG2 cells after 3 days by XTT assay; format: functional, cell-based; details: HepG2, 72 h
DU-145 = test: Cytotoxicity against human DU145 cells after 5 days by SRB assay; format: functional; details: DU-145, 120 h
NCI-H23 = test: Cytotoxicity against human NCI-H23 cells after 5 days by SRB assay; format: functional; details: NCI-H23, 120 h
CCRF-CEM [4] = test: Cell cycle arrest in human CCRF-CEM cells assessed as accumulation at S phase at IC50 concentration using propidium iodide staining by flow cytometry relative to control; format: functional
CCRF-CEM [5] = test: Cell cycle arrest in human CCRF-CEM cells assessed as increased of cellular debris level at IC50 concentration using propidium iodide staining by flow cytometry relative to control; format: functional
CCRF-CEM [6] = test: Cell cycle arrest in human CCRF-CEM cells assessed as accumulation at G1 phase at IC50 concentration using propidium iodide staining by flow cytometry relative to control; format: functional
CCRF-CEM [7] = test: Cell cycle arrest in human CCRF-CEM cells assessed as accumulation at G2/M phase at IC50 concentration using propidium iodide staining by flow cytometry relative to control; format: functional
[8] = Chemical stability of the compound assessed as specific activity per ug at 30 uM after 30 mins in presence of purified carboxylesterase 1; format: physicochemical; details: isolated protein, 0.5 h
[9] = Chemical stability of the compound assessed as specific activity per ug at 30 uM after 30 mins in presence of purified cathepsin A; format: physicochemical; details: 0.5 h
[10] = Chemical stability of the compound assessed as specific activity per ug at 30 uM after 30 mins in presence of purified carboxylesterase 2; format: physicochemical; details: isolated protein, 0.5 h
[11] = Permeability from apical to basolateral side of human Caco2 cells at 10 uM after 60 to 120 mins by HPLC analysis; format: ADME, cell-based; details: Caco-2
[12] = Permeability from apical to basolateral side at 10 uM after 60 to 120 mins by HPLC analysis; format: ADME; details: not told
[13] = Efflux ratio of permeability from basolateral to apical side over apical to basolateral side in human Caco2 cells at 10 uM after 60 to 120 mins by HPLC analysis; format: ADME, cell-based; details: Caco-2
[14] = Permeability from basolateral to apical side of human Caco2 cells at 10 uM after 60 to 120 mins by HPLC analysis; format: ADME, cell-based; details: Caco-2

SMILES | GI50 (HCT-116) [µM] | IC50 (CCRF-CEM [1]) [µM] | GI50 (HL-60) [µM] | GI50 [2] [µM] | IC50 [3] [µM] | IC50 (HepG2) [nM] | GI50 (DU-145) [µM] | GI50 (NCI-H23) [µM] | Activity (CCRF-CEM [4]) [%] | Activity (CCRF-CEM [5]) [%] | Activity (CCRF-CEM [6]) [%] | Activity (CCRF-CEM [7]) [%] | Stability [8] [pmol/min] | Stability [9] [pmol/min] | Stability [10] [pmol/min] | Papp A→B at 10 µM [11] [×10⁻⁶ cm/s] | Papp A→B at 10 µM [12] [×10⁻⁶ cm/s] | efflux ratio at 10 µM [13] | Papp B→A at 10 µM [14] [×10⁻⁶ cm/s]
OC[C@H]1O[C@@H](n2ccc3c(-c4cccc5c4oc4ccccc45)ncnc32)[C@H](O)[C@@H]1O | > 10 | > 10 | > 10 | > 10 | > 10 | > 10000 |  |  |  |  |  |  |  |  |  |  |  |  | 
CCOC(=O)[C@H](C)NP(=O)(OC[C@H]1O[C@@H](n2ccc3c(-c4ccsc4)ncnc32)[C@H](O)[C@@H]1O)Oc1ccccc1 (some centres undefined) | > 10 | > 10 | > 10 | > 10 | > 10 | > 10000 | > 10 | > 10 |  |  |  |  |  |  |  |  |  |  | 
C[C@H](NP(=O)(OC[C@H]1O[C@@H](n2ccc3c(-c4ccsc4)ncnc32)[C@H](O)[C@@H]1O)Oc1ccccc1)C(=O)OCc1ccccc1 (some centres undefined) | 7.51 | > 10 | > 10 | 7.56 | 5.45 | 4580 | 3.57 | 7.44 | 54.2 | 22.2 | 35.9 | 9.9 |  |  |  |  |  |  | 
COC(=O)[C@H](C)NP(=O)(OC[C@H]1O[C@@H](n2ccc3c(-c4ccsc4)ncnc32)[C@H](O)[C@@H]1O)Oc1ccccc1 (some centres undefined) | > 10 | > 10 | > 10 | > 10 | > 10 | > 10000 | > 10 | > 10 |  |  |  |  | 167 | 1496 | 0 |  |  |  | 
OC[C@H]1O[C@@H](n2ccc3c(-c4ccccc4)ncnc32)[C@H](O)[C@@H]1O | 5.7 | 1 |  | 3.1 | 4.1 | > 10000 | 0.075 |  |  |  |  |  |  |  |  |  |  |  | 
C[C@H](NP(=O)(OC[C@H]1O[C@@H](n2ccc3c(-c4ccco4)ncnc32)[C@H](O)[C@@H]1O)Oc1ccccc1)C(=O)OCc1ccccc1 (some centres undefined) | 1.08 | 1.13 | 2.19 | 1.04 | 0.58 | 620 | 1.36 | 1.91 | 54.7 | 48.8 | 31.6 | 13.7 | 133 | 14727 | 0 |  |  |  | 
COC(=O)[C@H](C)NP(=O)(OC[C@H]1O[C@@H](n2ccc3c(-c4ccco4)ncnc32)[C@H](O)[C@@H]1O)Oc1ccccc1 (some centres undefined) | 1.03 | 3.44 | 3.31 | 2.31 | 1.4 | 1200 | 1.19 | 4.63 |  |  |  |  | 86 | 1249 | 0 |  |  |  | 
COC(=O)[C@H](C)NP(=O)(OC[C@H]1O[C@@H](n2ccc3c(-c4ccoc4)ncnc32)[C@H](O)[C@@H]1O)Oc1ccccc1 (some centres undefined) | 7.95 | > 10 | > 10 | > 10 | 7.84 | 3610 | 3.86 | > 10 |  |  |  |  |  |  |  |  |  |  | 
COC(=O)[C@H](C)NP(=O)(OC[C@H]1O[C@@H](n2ccc3c(-c4cccc5c4oc4ccccc45)ncnc32)[C@H](O)[C@@H]1O)Oc1ccccc1 (some centres undefined) | > 10 | > 10 | > 10 | > 10 | > 10 | > 10000 |  |  |  |  |  |  |  |  |  |  |  |  | 
OC[C@H]1O[C@@H](n2ccc3c(-c4ccco4)ncnc32)[C@H](O)[C@@H]1O |  |  | 0.81 |  |  | 470 |  |  |  |  |  |  |  |  |  |  |  |  | 
OC[C@H]1O[C@@H](n2ccc3c(-c4ccoc4)ncnc32)[C@H](O)[C@@H]1O |  |  | 1.5 |  |  | 1720 |  |  |  |  |  |  |  |  |  |  |  |  | 
CCOC(=O)[C@H](C)NP(=O)(OC[C@H]1O[C@@H](n2ccc3c(-c4cccs4)ncnc32)[C@H](O)[C@@H]1O)Oc1ccccc1 (some centres undefined) | > 10 | > 10 | > 10 | 9.6 | 5.93 | 1530 | > 10 | 10.9 |  |  |  |  |  |  |  | 0.76 | 33.8 | 12.7 | 9.62
